A short description of data set [1]: Concentrations and tolerability in healthy mice. It is filed as in vivo. The settings on record: 1.4 g/Kg α-bisabolol.
Data set [2] concerns BID. Briefly: Western blot for BID cleavage and mitochondrial translocation. Format: cell-based, human. As for the experimental part: Cells were homogenized at 4°C in 50 mM Tris-HCl (pH 8) containing 0.1% Nonidet-P40 (NP-40), 200 mM KCl, 2 mM MgCl2, 50 μM ZnCl2, 2 mM DTT, and protease inhibitors [1 mM phenylmethylsulfonyl fluoride (PMSF), 1 mg/mL leupeptin, and 1 mg/mL antipain]. Aliquots of the homogenates (40 μg total protein/lane) were loaded on SDS-polyacrylamide gels at the appropriate concentrations. Electrophoresis was performed at 100 V with a running buffer containing 0.25 M Tris-HCl (pH 8.3), 1.92 M glycine, and 1% SDS. The resolved proteins were electroblotted onto a nitrocellulose membrane using the iBlot™ system (Invitrogen, Carlsbad, CA). Membranes were then incubated with a mouse monoclonal IgG antibody to poly(ADP-ribose) polymerase (PARP) (Zymed, South San Francisco, CA), with a rabbit polyclonal IgG antibody to BID (Cell Signaling Technology, Danvers, MA) or with a rabbit polyclonal IgG antibody to α-tubulin (Cell Signaling Technology). The membranes were then washed and incubated with an anti-mouse or anti-rabbit IgG peroxidase-conjugated antibody (Cell Signaling Technology). The blots were washed again and then incubated with enhanced chemiluminescent detection reagents (Immun-Star™ WesternC™ Kit, Bio-Rad, Hercules, CA) according to the manufacturer's instructions. Proteins were detected using the ChemiDoc XRS Imaging System (Bio-Rad). […]
In general terms: Immunoblotting shows a protein as a band on a membrane.

Data set [3] deals with AML cells. Briefly: 24-hour LDH release cytotoxicity assay, ex vivo blasts. The settings on record: for cytotoxicity: 24 hours, mean ± SD. It is filed as cell-based, human. As for the experimental part: (§1) Viable leukemic cells were purified by conventional methods from freshly heparinized peripheral blood with a circulating blast count ≥30,000/mL, or from full-substituted bone marrow that was frozen in liquid nitrogen at diagnosis. In all cases frozen cell samples contained >95% blasts. Cell viability after thawing was always >90%, as assessed by trypan blue staining.
(§2) Cells derived from patients or normal donors were exposed for 24 hours to 20, 40, 80, and 160 μM α-bisabolol dissolved in ethanol (1:8 in order to minimize drug volumes), and when appropriate to 3 μM imatinib mesylate (Novartis, Basel, CH), representative of the in vivo active concentration. All cytotoxicity tests were performed in triplicate.
(§3) A lactate dehydrogenase (LDH) release assay was conducted as follows. Thawed cells were resuspended in RPMI-1640 (Lonza, Basel, CH) supplemented with 10% heat-inactivated fetal bovine serum (FBS, Lonza), 50 U/mL penicillin and 50 μg/mL streptomycin (complete medium, CM), seeded at a density of 2 × 10^6 cell/mL and incubated at 37°C in 5% CO2. After 24 hours, the cells were treated with α-bisabolol (or ethanol as a vehicle control) as specified above. Cytotoxicity was determined using the Cytotoxicity Detection Kit^PLUS according to the manufacturer's recommendations (Roche, Mannheim, DE). LDH leakage was measured as the ratio of treatment-induced LDH to spontaneous LDH release. α-bisabolol and imatinib mesylate data were reported as the percent cytotoxicity for treated compared to untreated cells and plotted as dose-response curves over 24 hours. The half maximal inhibitory concentration (IC50) was determined when appropriate.
(§4) Student's t-test for means, chi-squared tests, Mann-Whitney U test and Kruskall-Wallis analysis of variance by ranks were considered significant for p values < 0.05.

For data set [4], the system named is primary Ph^-B-ALL cells. Described as above. The settings on record: for cytotoxicity: 24 hours. Format: cell-based, human. As for the experimental part:
as §1, §2, §3, §4

Data set [5] is described as follows: Solubilization of α-bisabolol in the culture medium by RP-HPLC. It is filed as physicochemical. The settings on record: after 24 hours. As for the experimental part:
α-bisabolol at a purity ≥95% (GC) was purchased from Sigma-Aldrich, St. Louis, MO. The dose-dependent solubilization of α-bisabolol in the culture medium over 24 hours was determined by a reverse-phase high performance liquid chromatography (RP-HPLC) method, developed in the Department of Food Science of Bologna University, Cesena office, Italy. All measurements were performed in duplicate. The α-bisabolol concentrations indicated throughout the article represent the calculated soluble fraction in the assay.

The subject of data set [6] is leukemic blasts. Briefly: Mitochondrial membrane potential, JC-1 staining. Format: cell-based, human. The settings on record: 40 μM α-bisabolol, 3 and 5 hours, JC-1, 6 leukemias tested. As to the method: Cells resuspended in CM at 1 × 10^6/mL were treated with 40 μM α-bisabolol for 3 or 5 hours at 37°C. They were then washed with pre-warmed CM, 4 μM of the potential sensitive dye JC-1 (5,5',6,6'-tetra-chloro-1,1',3,3'-tetra-ethyl-benz-imidazolyl-carbocyanine iodide, Molecular Probes, Eugene, OR) was added, and they were then placed back into the incubator. After 30 minutes they were washed twice with pre-warmed PBS. An aliquot of each sample was spotted onto a slide, mounted with a coverslip and immediately recorded by an Axio Observer inverted microscope (Zeiss, Gottingen, DE). Visualization of JC-1 monomers (green fluorescence) and JC-1 aggregates (red fluorescence) was done using filter sets for fluorescein and rhodamine dyes (emission 488 and 550 nm respectively). Image captures of random fields using fixed imaging parameters were performed, and previously unviewed areas of cells were captured to avoid photobleaching. Image analysis was done using Axiovision 3 software. The other aliquot of each sample was resuspended in PBS and analyzed using a FACSCalibur cytometer (Becton Dickinson) equipped with a 488 nm argon laser. The emission of JC-1 monomers was detected in Fl-1 using a 530/30 nm bandpass filter, and JC-1 aggregates were detected in Fl-2 using a 585/42 nm bandpass filter. FlowJo 8.8.2 software (Tree Star, Ashland, OR) was used to analyze data.

Turning to `CC(C)=CCC[C@](C)(O)[C@@H]1CC=C(C)CC1` [α-bisabolol], in data set [1], the “blood parameters of liver and kidney functionality” value is “preserved”. In data set [1], the “concentration in the brain” value is given as “exceeded 50 μM”. In addition, the “cleavage of BID to truncated BID” value in data set [2] (24-hour α-bisabolol, any concentration, PBMCs and blasts) is reported as “did not induced the cleavage of BID”. Besides, the “BID translocation to mitochondrial fraction” value in data set [2] (different times and solubilized doses of α-bisabolol) is “No BID translocation was detected”. In addition, the concentration for half-maximal inhibition (IC50) in data set [3] (Homo sapiens, n 14, 24-hour) worked out at 54 ± 8 µM; in data set [4] (Homo sapiens, n 14, 24-hour) it was 33 ± 15 µM. Moreover, the cytotoxicity in data set [3] (n 14, 20 μM α-bisabolol) stood at 10 ± 9%; in data set [3] (n 14, 40 μM α-bisabolol), 32 ± 21%; in data set [3] (n 14, 80 μM α-bisabolol), 72 ± 11%; in data set [3] (n 14, 160 μM α-bisabolol), 96 ± 4%; in data set [4] (n 14, 20 μM α-bisabolol, mean ± SD) it was 37 ± 36%; in data set [4] (n 14, 40 μM α-bisabolol, mean ± SD) it was 55 ± 37%. For the same compound, the cytotoxicity stood at 87 ± 12% in data set [4] (n 14, 80 μM α-bisabolol, mean ± SD) and 100% in data set [4] (n 14, 160 μM α-bisabolol). The “incremental ratio of measured to added concentrations” value in data set [5] (0-250 μM added, double series of 7 concentrations) was 0.65. In addition, the “fraction of the α-bisabolol added measured in the culture medium” value in data set [5] (RP-HPLC) is “around 65%”. The “mitochondrial transmembrane potential (ΔΨm)” value in data set [6] is “dissipates the mitochondrial transmembrane potential”.

Broadly, the IC50 is the midpoint of a concentration-inhibition curve.

The values are drawn from PMC3112094, “Pro-apoptotic activity of α-bisabolol in preclinical models of primary human acute leukemia cells” (Journal of Translational Medicine, 2011).
